According to US20240358611A1, “COMPOSITIONS” (SYMRISE AG, priority 2021, published 2024):

What was measured:
[1] = tested on: LPS-stimulated, pro-inflammatory synthesis of IL-1B in RAW macrophages; experiment: LPS-stimulated IL-1B synthesis in RAW 264.7 macrophages (ELISA); type: cell-based, mouse; details: LPS 10 ng/ml, 24 h
Protocol: (§1) RAW 264.7 (mouse macrophage tumor cells) cells were provided from the University of Cordoba in Spain and maintained in RPMI1640 medium containing FCS.
(§2) Cells are seeded in 24-well-plates (approx. 500 000 cells/ml in 1 ml) for ELISA experiments.
(§3) Cells are incubated without or with LPS (10 ng/ml) for 24 h. The pyrozol derivates or additives such as Thymol or Menthol (3 doses, 1, 10, 100 μM) are added 30 min before LPS treatment as single dose or in combination. […] After 24 h, supernatants are removed, centrifuged, and investigated for PGE2 concentrations in EIA (PGE2, from Cayman, isoprostane from Cayman) or ELISA (IL-1B, IL-6, TNF-alpha, Biotechne)). Each dose is investigated 2 times.
(§4) Optimal dose range for additives and substituted azacycles was determined in a preliminary assays dose finding assay (data not shown). Thus, test items are investigated at 10 μM 100 μM or any combination of the two doses for additive effects. Synergism is defined as additive effect surpassing the hypothetical mathematical value of effective doses. The hypothetical value is depicted in all graphs as dashed line.

[2] = tested on: LPS-stimulated, pro-inflammatory synthesis of PGE2 in RAW macrophages; experiment: LPS-stimulated PGE2 synthesis in RAW 264.7 macrophages (EIA); type: cell-based, mouse; details: 10 μM in combination with 10 μM Thymol, LPS 10 ng/ml, 24 h
Protocol: as §1, §2, §3, §4

[3] = in combination with Menthol, 10 μM or 100 μM each, all tested combinations
[4] = in combination with Thymol, 10 μM or 100 μM each

CC1CCC(C(C)C)C(O)C1 (stereo not drawn) [Menthol]
effect on LPS-stimulated IL-1 beta synthesis ([1]; applied as single substance): stimulates IL-1 beta synthesis

CC[C@H](C)C(=O)N1CCCCC1c1ncc(-c2ccc(C)cc2)[nH]1 (stereo partly drawn) [CoNo166, (2S)-2-methyl-1-[2-[5-(p-tolyl)-1H-imidazol-2-yl]-1-piperidyl]butan-1-one]
effect on LPS-stimulated PGE2 synthesis [2]: synergistically mitigated PGE2 synthesis
effect on LPS-stimulated IL-1 beta synthesis [1, 3]: strong inhibition of IL-1 beta synthesis
effect on LPS-stimulated IL-1 beta synthesis [1, 4]: strong synergistic soothing effect

CCC(C)C(=O)N1CCCCC1c1ncc(-c2ccc(C)cc2)[nH]1 (stereo not drawn) [CoNo164, 2-methyl-1-[2-[5-(p-tolyl)-1H-imidazol-2-yl]-1-piperidyl]butan-1-one]
effect on LPS-stimulated PGE2 synthesis [2]: synergistically mitigated PGE2 synthesis
effect on LPS-stimulated IL-1 beta synthesis [1, 3]: strong inhibition of IL-1 beta synthesis
effect on LPS-stimulated IL-1 beta synthesis [1, 4]: strong synergistic soothing effect

CSC(C)C(=O)N1CCCC[C@@H]1c1ncc(-c2ccc(C)cc2)[nH]1 (stereo partly drawn) [CoNo11, 2-methylsulfanyl-1-[(1R)-2-[5-(p-tolyl)-1H-imidazol-2-yl]-1-piperidyl]-propan-1-one]
effect on LPS-stimulated IL-1 beta synthesis [1, 3]: strong inhibition of IL-1 beta synthesis
effect on LPS-stimulated IL-1 beta synthesis [1, 4]: strong synergistic soothing effect
